Measured values: patent US9247759B2, “Identification of human T2R receptors that respond to bitter compounds that elicit the bitter taste in compositions, and the use thereof in assays to identify compounds that inhibit (block) bitter taste in compositions and use thereof” (SENOMYX, INC., priority 2007, dated 2016)
Like-named read-outs stand apart in the source and are kept apart here.

Columns and labels:
hT2R63 = assay: hT2R panel inhibition, transient HEK293 G16g44, agonist Caffeine 1 mM or Andrographolide 100 μM; assay type: cell-based, human; settings: compound at 25 μM; for screening result against bitter receptor 63: receptor activated to EC80 with the corresponding agonist; for inhibition of bitter receptor 63: receptor activated to EC80 with agonist
Procedure: (§1) Specifically, in order to evaluate the inhibitory selectivity of the Compound C compound, this compound was tested against 22 human T2Rs which were deorphaned by Senomyx. These receptors and the bitter ligands that activate these human T2Rs are reported in earlier patent applications which are incorporated by reference herein. These 22 human T2Rs are hT2R1, 3, 4, 5, 7, 8, 9, 10, 13, 14, 16, 44, 51, 54, 55, 61, 63, 64, 65, 67, 71 and 75. The amino acid and nucleic acid sequences of all of these T2Rs may be found in these earlier patent applications. These human T2Rs were each individually transiently transfected into HEK293 cells that stably express the promiscuous G protein G16g44 and functional assays were effected using these receptors as disclosed in these same patent applications. […] The ligands were used at EC80 concentration levels. The list of bitter ligands utilized and the tested ligand concentrations are contained in Table 5 of this example.
(§2) Relating to the foregoing, FIG. 5 contains experimental results wherein Compound C was tested with different agonist compounds. The inhibition activity is represented by the reduction of receptor activity in the presence of Compound C. […] These 13 hT2Rs are hT2R3, 7, 10, 14, 16, 44, 51, 55, 61, 63, 64, 65, and 71.

hT2R71 = hT2R71 (Homo sapiens (Human), UniProt P59536); assay: hT2R panel inhibition, transient HEK293 G16g44, agonist Picric Acid 10 μM; assay type: cell-based; settings: HEK293, compound at 25 μM; receptor activated to EC80 with the corresponding agonist; read-out: screening result against bitter receptor 71
Procedure: as §1, §2

hT2R14 [1] = target: T1, hT2R14 (Homo sapiens (Human), UniProt Q9NYV8); assay: hT2R panel inhibition, transient HEK293 G16g44, agonist Aristolochic Acid 2 μM; assay type: cell-based; settings: HEK293, compound at 25 μM
Procedure: as §1

hT2R44 = assay: hT2R panel inhibition, transient HEK293 G16g44, agonist Denatonium 0.5 μM; assay type: cell-based, human; settings: compound at 25 μM; for screening result against bitter receptor 44: receptor activated to EC80 with the corresponding agonist
Procedure: as §1, §2

hT2R55 = assay: hT2R panel inhibition, transient HEK293 G16g44, agonist Cinchonine 150 μM; assay type: cell-based, human; settings: compound at 25 μM; receptor activated to EC80 with the corresponding agonist
Procedure: as §1, §2

hT2R3 = hT2R3 (Homo sapiens (Human), UniProt Q9NYW6); assay: hT2R panel inhibition, transient HEK293 G16g44, agonist Chloroquine pH6.5 50 μM; assay type: cell-based; settings: HEK293, compound at 25 μM; receptor activated to EC80 with the corresponding agonist; read-out: screening result against bitter receptor 3
Procedure: as §1, §2

hT2R61 = hT2R61 (Homo sapiens (Human), UniProt P59537); assay: hT2R panel inhibition, transient HEK293 G16g44, agonist Aristolochic Acid 25 nM; assay type: cell-based; settings: HEK293, compound at 25 μM
Procedure: as §1, §2

hT2R14 [2] = target: T1, hT2R14; assay: hT2R14 antagonist high-throughput FLIPR assay, stable cell line with G16g44, agonist aristolochic acid; assay type: cell-based
Summary of the method: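 HEK293 cells stably expressing hT2R14 with chimeric G16g44 were stimulated with aristolochic acid (3 μM), giving 70-80% of maximal receptor activity. Test compounds were added together with the agonist, and antagonism was read as fluorescent calcium signal on FLIPR.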

hT2R64 = hT2R64 (Homo sapiens (Human), UniProt P59538); assay: hT2R panel inhibition, transient HEK293 G16g44, agonist Aristolochic Acid 1 μM; assay type: cell-based; settings: HEK293, compound at 25 μM; receptor activated to EC80 with the corresponding agonist; read-out: screening result against bitter receptor 64
Procedure: as §1, §2

hT2R5 = hT2R5 (Homo sapiens (Human), UniProt Q9NYW4); assay: hT2R panel inhibition, transient HEK293 G16g44, agonist Picoline 10 mM; assay type: cell-based; settings: HEK293, compound at 25 μM; receptor activated to EC80 with the corresponding agonist; read-out: screening result against bitter receptor 5
Procedure: as §1, §2

hT2R10 = hT2R10 (Homo sapiens (Human), UniProt Q9NYW0); assay: hT2R panel inhibition, transient HEK293 G16g44, agonist Strychnine 50 μM; assay type: cell-based; settings: HEK293, read-out: screening result against bitter receptor 10, compound at 25 μM; receptor activated to EC80 with the corresponding agonist
Procedure: as §1, §2

hT2R16 = hT2R16 (Homo sapiens (Human), UniProt Q9NYV7); assay: hT2R panel inhibition, transient HEK293 G16g44, agonist Salicin 1 mM; assay type: cell-based; settings: HEK293, compound at 25 μM; receptor activated to EC80 with the corresponding agonist; read-out: screening result against bitter receptor 16
Procedure: as §1, §2

hT2R7 = hT2R7 (Homo sapiens (Human), UniProt Q9NYW3); assay: hT2R panel inhibition, transient HEK293 G16g44, agonist Chloroquine pH6.5 10 mM; assay type: cell-based; settings: HEK293, compound at 25 μM; receptor activated to EC80 with agonist; read-out: inhibition of bitter receptor 7
Procedure: as §1, §2

[3] = receptor activated to EC80 with the corresponding agonist, read-out: screening result against bitter receptor 14
[4] = receptor activated to EC80 with the corresponding agonist, read-out: screening result against bitter receptor 61
[5] = receptor activated to EC80 with agonist, read-out: inhibition of bitter receptor 14

Sequence of hT2R61 (P59537 whole entry): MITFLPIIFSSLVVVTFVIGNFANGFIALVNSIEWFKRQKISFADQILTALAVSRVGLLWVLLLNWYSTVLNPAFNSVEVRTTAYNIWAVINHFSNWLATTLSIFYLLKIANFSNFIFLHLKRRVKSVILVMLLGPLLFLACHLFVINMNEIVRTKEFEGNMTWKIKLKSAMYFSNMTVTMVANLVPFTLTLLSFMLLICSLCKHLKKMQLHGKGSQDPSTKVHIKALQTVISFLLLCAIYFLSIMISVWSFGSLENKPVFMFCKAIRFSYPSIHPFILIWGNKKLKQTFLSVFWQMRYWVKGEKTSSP
Sequence of hT2R3 (Q9NYW6 whole entry): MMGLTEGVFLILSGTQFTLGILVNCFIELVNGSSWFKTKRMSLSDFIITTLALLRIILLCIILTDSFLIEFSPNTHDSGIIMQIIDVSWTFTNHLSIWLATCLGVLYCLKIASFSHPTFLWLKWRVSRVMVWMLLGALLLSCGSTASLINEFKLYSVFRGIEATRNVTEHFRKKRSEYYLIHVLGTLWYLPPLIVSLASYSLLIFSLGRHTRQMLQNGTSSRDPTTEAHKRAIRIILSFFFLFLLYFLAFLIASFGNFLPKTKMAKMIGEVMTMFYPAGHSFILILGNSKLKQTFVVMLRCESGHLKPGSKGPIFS
T1 sequence (Q9NYV8 whole entry): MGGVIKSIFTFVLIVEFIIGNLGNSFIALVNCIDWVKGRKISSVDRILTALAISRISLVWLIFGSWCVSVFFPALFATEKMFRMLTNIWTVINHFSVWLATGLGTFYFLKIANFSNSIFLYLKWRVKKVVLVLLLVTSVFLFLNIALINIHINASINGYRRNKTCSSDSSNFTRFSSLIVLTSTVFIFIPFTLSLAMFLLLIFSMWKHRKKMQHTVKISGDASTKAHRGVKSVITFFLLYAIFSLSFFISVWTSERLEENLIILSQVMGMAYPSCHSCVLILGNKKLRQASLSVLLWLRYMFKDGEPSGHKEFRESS
Sequence of hT2R71 (P59536 whole entry): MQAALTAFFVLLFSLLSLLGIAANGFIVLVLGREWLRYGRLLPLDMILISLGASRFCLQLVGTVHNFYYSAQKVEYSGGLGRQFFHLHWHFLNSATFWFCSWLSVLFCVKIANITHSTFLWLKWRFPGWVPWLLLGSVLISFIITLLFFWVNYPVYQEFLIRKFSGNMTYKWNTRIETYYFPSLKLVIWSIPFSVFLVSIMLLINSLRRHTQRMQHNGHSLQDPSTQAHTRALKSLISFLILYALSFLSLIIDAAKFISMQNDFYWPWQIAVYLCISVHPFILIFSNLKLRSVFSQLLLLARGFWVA
Sequence of hT2R64 (P59538 whole entry): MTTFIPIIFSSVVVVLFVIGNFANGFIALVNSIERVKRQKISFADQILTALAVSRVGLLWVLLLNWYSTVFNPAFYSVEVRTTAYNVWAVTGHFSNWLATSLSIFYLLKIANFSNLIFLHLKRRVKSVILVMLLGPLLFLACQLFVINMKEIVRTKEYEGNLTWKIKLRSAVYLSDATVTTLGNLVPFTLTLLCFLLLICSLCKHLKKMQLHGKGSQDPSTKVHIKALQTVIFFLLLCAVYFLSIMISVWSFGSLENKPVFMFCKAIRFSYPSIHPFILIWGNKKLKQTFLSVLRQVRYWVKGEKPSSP
Sequence of hT2R5 (Q9NYW4 whole entry): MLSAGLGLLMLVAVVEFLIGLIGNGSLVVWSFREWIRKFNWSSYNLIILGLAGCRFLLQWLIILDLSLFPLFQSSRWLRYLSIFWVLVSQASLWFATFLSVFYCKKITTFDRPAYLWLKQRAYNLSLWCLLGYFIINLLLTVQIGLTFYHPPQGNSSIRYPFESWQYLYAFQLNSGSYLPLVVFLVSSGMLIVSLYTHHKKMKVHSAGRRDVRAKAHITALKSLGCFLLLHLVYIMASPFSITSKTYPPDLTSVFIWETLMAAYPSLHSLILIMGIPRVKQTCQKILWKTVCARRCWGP
Sequence of hT2R7 (Q9NYW3 whole entry): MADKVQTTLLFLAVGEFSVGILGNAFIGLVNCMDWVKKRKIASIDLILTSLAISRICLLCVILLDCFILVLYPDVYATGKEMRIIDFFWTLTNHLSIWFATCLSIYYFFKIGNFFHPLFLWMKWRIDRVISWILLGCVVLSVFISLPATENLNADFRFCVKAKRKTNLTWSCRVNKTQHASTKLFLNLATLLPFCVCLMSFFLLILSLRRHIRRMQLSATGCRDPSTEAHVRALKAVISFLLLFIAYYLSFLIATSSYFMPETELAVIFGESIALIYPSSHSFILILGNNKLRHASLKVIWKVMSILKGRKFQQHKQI
Sequence of hT2R16 (Q9NYV7 whole entry): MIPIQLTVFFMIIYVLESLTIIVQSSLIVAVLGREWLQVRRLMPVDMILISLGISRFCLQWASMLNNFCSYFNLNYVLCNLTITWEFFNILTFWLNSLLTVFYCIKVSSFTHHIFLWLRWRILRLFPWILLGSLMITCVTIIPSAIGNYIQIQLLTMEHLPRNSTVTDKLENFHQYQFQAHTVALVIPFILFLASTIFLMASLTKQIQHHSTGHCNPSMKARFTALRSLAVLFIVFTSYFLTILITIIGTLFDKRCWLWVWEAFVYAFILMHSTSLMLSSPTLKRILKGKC
Sequence of hT2R10 (Q9NYW0 whole entry): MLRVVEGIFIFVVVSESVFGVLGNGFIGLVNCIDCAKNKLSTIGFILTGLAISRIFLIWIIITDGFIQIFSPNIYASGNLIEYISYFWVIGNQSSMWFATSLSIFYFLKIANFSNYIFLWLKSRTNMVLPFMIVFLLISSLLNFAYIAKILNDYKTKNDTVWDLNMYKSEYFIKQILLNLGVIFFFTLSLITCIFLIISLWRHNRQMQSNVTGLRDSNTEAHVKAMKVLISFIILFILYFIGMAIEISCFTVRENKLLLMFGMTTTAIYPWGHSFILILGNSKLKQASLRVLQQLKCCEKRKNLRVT

SMILES | screening result against bitter receptor 63 (hT2R63) | inhibition at 25 µM (hT2R71) | inhibition at 25 µM (hT2R14 [1]; [3]) | screening result against bitter receptor 44 (hT2R44) | screening result against bitter receptor 55 (hT2R55) | inhibition at 25 µM (hT2R3) | inhibition at 25 µM (hT2R61; [4]) | inhibition at 25 µM (hT2R64) | further results
COc1ccc(CN(Cc2ccc(C(=O)O)cc2)S(=O)(=O)c2ccc(O)cc2)cc1 [Example 5-44, 4-((4-hydroxy-N-(4-methoxybenzyl)phenylsulfonamido)methyl)-benzoic acid] | ++++ (80% or greater inhibition = ++++) | 40 to 60% | > 80% | ++ (40% to 60% inhibition = ++) | + (20% to 40% inhibition = +) | 20 to 40% | > 80% | 40 to 60% | IC50 (hT2R14 [2]; read-out: IC50 on hT2R14 bitter receptor): 3430 nM
COc1ccc(CN(Cc2ccccc2)S(=O)(=O)c2ccc(CC(=O)O)cc2)cc1 [Example 5-47, 2-(4-(N-benzyl-N-(4-methoxybenzyl)sulfamoyl)phenyl)acetic acid] | + (20% to 40% inhibition = +) | 20 to 40% | – | + (20% to 40% inhibition = +) | – | 20 to 40% | 60 to 80% | – | –
COc1ccc(CN(Cc2ccccc2)C(=O)c2ccc(C(=O)O)cc2)cc1 [Example 5-49, 4-(benzyl(4-methoxybenzyl)carbamoyl)benzoic acid] | + (20% to 40% inhibition = +) | 20 to 40% | – | + (20% to 40% inhibition = +) | ++++ (80% or greater inhibition = ++++) | 20 to 40% | 60 to 80% | 40 to 60% | –
CN(Cc1ccccc1)S(=O)(=O)c1ccc(C(=O)O)cc1 [Example 5-55, 4-(N-benzyl-N-methylsulfamoyl)benzoic acid] | ++++ (80% or greater inhibition = ++++) | – | > 80% | – | ++ (40% to 60% inhibition = ++) | 20 to 40% | 20 to 40% | 40 to 60% | inhibition at 25 µM (hT2R5): 20 to 40%
COc1ccc(CNS(=O)(=O)c2ccc(C(=O)O)cc2)cc1 [Example 5-56, 4-(N-(4-methoxybenzyl)sulfamoyl)benzoic acid] | – | – | – | – | – | 20 to 40% | – | 20 to 40% | –
COc1ccc(CN(Cc2ccccc2)S(=O)(=O)CCC(=O)O)cc1 [Example 5-57, 3-(N-benzyl-N-(4-methoxybenzyl)sulfamoyl)propanoic acid] | – | – | – | – | +++ (60% to 80% inhibition = +++) | 20 to 40% | > 80% | 40 to 60% | inhibition at 25 µM (hT2R10): 20 to 40%
COc1ccc(CN(Cc2cccs2)S(=O)(=O)c2ccc(C(=O)O)cc2)cc1 [Example 5-61, 4-(N-(4-methoxybenzyl)-N-(thiophen-2-ylmethyl)sulfamoyl)benzoic acid] | ++++ (80% or greater inhibition = ++++) | 20 to 40% | – | – | + (20% to 40% inhibition = +) | – | 40 to 60% | 20 to 40% | inhibition at 25 µM (hT2R5): 20 to 40%
COc1ccc(CN(Cc2cccc(C)c2)S(=O)(=O)c2ccc(C(=O)O)cc2)cc1 [Example 5-65, 4-(N-(4-methoxybenzyl)-N-(3-methylbenzyl)sulfamoyl)benzoic acid] | – | – | – | – | – | 20 to 40% | – | – | –
COc1ccc(CN(Cc2ccncc2)S(=O)(=O)c2ccc(C(=O)O)cc2)cc1 [Example 5-86, 4-(N-(4-methoxybenzyl)-N-(pyridin-4-ylmethyl)sulfamoyl)benzoic acid] | +++ (60% to 80% inhibition = +++) | – | 20 to 40% | + (20% to 40% inhibition = +) | – | – | 60 to 80% | – | –
COc1ccc(CN(Cc2ccccc2)C(=O)Nc2ccc(C(=O)O)cc2)cc1 [Example 5-94, 4-(3-benzyl-3-(4-methoxybenzyl)ureido)benzoic acid] | – | 20 to 40% | – | ++ (40% to 60% inhibition = ++) | – | 20 to 40% | 20 to 40% | 60 to 80% | –
COc1ccc(C(NS(=O)(=O)c2ccc(C(=O)O)cc2)c2ccccc2)cc1 (stereo not shown) [Example 5-97, 4-(N-((4-methoxyphenyl)(phenyl)methyl)sulfamoyl) benzoic acid] | +++ (60% to 80% inhibition = +++) | – | 20 to 40% | + (20% to 40% inhibition = +) | – | – | 20 to 40% | 20 to 40% | inhibition at 25 µM (hT2R16): 60 to 80%
O=C(O)c1ccc(CN(Cc2ccc(F)cc2)S(=O)(=O)c2ccc(O)cc2)cc1 [Example 5-107, 4-((N-(4-fluorobenzyl)-4-hydroxyphenylsulfonamido)methyl)benzoic acid] | +++ (60% to 80% inhibition = +++) | 20 to 40% | 60 to 80% | + (20% to 40% inhibition = +) | + (20% to 40% inhibition = +) | – | > 80% | 60 to 80% | –
Cc1c(F)cccc1NS(=O)(=O)c1ccc2c(c1)c(=O)n(C)c(=O)n2C [Example 6-7, N-(3-fluoro-2-methylphenyl)-1,3-dimethyl-2,4-dioxo-1,2,3,4-tetrahydroquinazoline-6-sulfonamide] | – | – | – | – | – | – | – | – | inhibition of bitter receptor 63 (hT2R63): + (20% to 40% inhibition = +); inhibition at 25 µM (hT2R14 [1]; [5]): 40 to 60%; inhibition at 25 µM (hT2R7): 20 to 40%
Cc1ccccc1NS(=O)(=O)c1ccc2c(c1)c(=O)n(C)c(=O)n2C [Example 6-9, 1,3-dimethyl-2,4-dioxo-N-o-tolyl-1,2,3,4-tetrahydroquinazoline-6-sulfonamide] | – | – | – | – | – | – | – | – | inhibition of bitter receptor 63 (hT2R63): + (20% to 40% inhibition = +); inhibition at 25 µM (hT2R14 [1]; [5]): > 80%; inhibition of bitter receptor 44 (hT2R44; receptor activated to EC80 with agonist): + (20% to 40% inhibition = +); inhibition at 25 µM (hT2R61; receptor activated to EC80 with agonist, read-out: inhibition of bitter receptor 61): 20 to 40%; IC50 (hT2R14 [2]; Table D, read-out: hT2R14 IC50): 1730 nM; inhibition at 25 µM (hT2R7): 40 to 60%
